Measurements published in patent US20050096282A1, “Adeno-associated virus-delivered ribozyme compositions and methods for the treatment of retinal diseases” (priority 1997, published 2005).
Where “and” joins values, the source holds several entries; their conditions need not be identical. Equal values may be shown once. Entries after “also recorded” stand apart in the source; their conditions may differ.

Tests used:
HREC [1] = assay: cAMP content of intact HRECs; type: cell-based, human; conditions: for inhibition of NECA-induced increase in cAMP content in HRECs: NECA 10 μM
From the text: The cAMP content of intact HRECs following treatment with adenosine receptor agonists and antagonists was next examined. […] The effect of selective A1 and A2A adenosine receptor antagonists on NECA-induced accumulation of cAMP was also examined.

HREC [2] = assay: BrdU incorporation (DNA synthesis) in HRECs; type: cell-based, human; conditions: for attenuation of NECA-stimulated BrdU incorporation by HRECs: XAC 10 μM, CPX 20 nM, SCH58261 60 nM
Experimental: (§1) The subtype of adenosine receptor (A2B) that mediates the proliferative effect of adenosine on HREC was determined by the following studies. […] In contrast, neither the A2A adenosine receptor agonist CGS21680 (2-p-(2-carboxyethyl) phenethylamino-5′-N-ethylcarboxamidoadenosine) at concentrations ranging from 10 nM to 10 μM, nor the A1 adenosine receptor agonist CPA (N^6-cyclopentyladenosine) at concentrations ranging from 10 nM to 10 μM increased BrdU incorporation by HRECs. […] In contrast, neither the selective A1 adenosine receptor antagonist CPX (8-cyclopentyl-1,3-dipropylxanthine) at 20 nM, nor the selective A2A adenosine receptor antagonist SCH58261 (5-amino-7-(2-phenylethyl)-2-(2-furyl)-pyrazolo(4,3-E)-1,2,4-trizolo(1,5-c) pyrimidine) at 60 nM attenuated the stimulatory effect of NECA on BrdU incorporation by HRECs. These findings indicate that the proliferative effects of NECA are mediated by the A2B adenosine receptor in HREC in culture (Table 3).

HREC [3] = assay: HREC chemotaxis; type: cell-based, human
From the text: The role of the A2B receptor was further characterized by examining the effects of the A2B antagonists JW V108 and Enprofylline on HREC chemotaxis, capillary tube formation and signal transduction pathways following stimulation with the adenosine analogue NECA.

HREC [4] = assay: ERK/MAPK activation in HREC, Western blot; type: cell-based, human; conditions: for effect on NECA-stimulated ERK activation: HREC pretreated with antagonist or inhibitor, then NECA
Experimental: HREC were serum-starved for 24 hr and pre-treated for 20 min with 1 U/mL adenosine deaminase prior to adding NECA. Activated ERK/MAPK was visualized on Western blots by enhanced chemiluminescence using EC10 monoclonal antibody;
HRECs were serum-starved for 24 hr and pre-treated with adenosine deaminase (ADA, 1 U/mL) for 20 min, incubated with the antagonists in the presence of ADA for 10 min. NECA (1 nM-10 μM, 10 min) was used to activate ERK.
In order to determine the intracellular signaling pathways activated by NECA that regulate ERK activity, we pretreated cells for 30 min with the ERK/MPAK kinase (MEK) inhibitor PD98059 or the PKA inhibitor H-89 and stimulated with NECA for 5 min.
Cells were pre-treated with both antagonists for 10 min and stimulated with increasing concentrations of NECA.

HREC [5] = assay: HREC proliferation, cell count; type: cell-based, human; conditions: agonist alone, 48 hr
Experimental: as §1
The data for cell counts were consistent with those for BrdU incorporation. […] These compounds, like XAC, blocked the proliferative effects of NECA as measured by cell counts, supporting that the proliferative effects of NECA on HREC are mediated by the adenosine A2B receptor (Table 3).

HREC [6] = assay: CREB phosphorylation at Ser133 in HREC, western blot; type: cell-based, human; conditions: HREC pretreated
From the text: Phosphorylation of cAMP response element binding protein (CREB) at Ser^133 was examined following NECA stimulation in order to determine whether activation of cAMP pathways by NECA occurred independently of ERK activation. Cells were pretreated with PD98059 or H-89 and assayed for active CREB by western blot.

[7] = test system: adenosine A2b receptor mRNA; assay: Ribozyme kinetic analysis, A2B; type: biochemical
From the text: (§2) The chief characteristic of diabetic retinopathy is retinal neovascularization-the pathologic spread of blood vessels in the eye. Unique ribozymes have been developed which target the mRNAs that encode various proteins involved in this process. These include ribozymes directed at the wild-type mRNA for the adenosine A2b receptor, for IGF-I (insulin-like growth factor-1) receptor, for inducible nitric oxide synthase (iNOS), and for several integrins implicated in retinal neovascularization (e.g., alpha1, alpha3, alphaV). Also shown in Table 7 are the analyses of P347S ribozymes, that are specific for another mutant form of the rod opsin polypeptide.

[8] = test system: IGF-I (insulin-like growth factor-1) receptor mRNA; assay: Ribozyme kinetic analysis, IGF1; type: biochemical; conditions: target GUACGUCUUCCAU
From the text: as §2

[9] = test system: P347S rod opsin mRNA target UGGCCUCGGCCUA; assay: Ribozyme kinetic analysis, P347S human; type: biochemical; conditions: mean
From the text: as §2

[10] = test system: P347S rod opsin mRNA target AGGCGUCAGCCUA; assay: Ribozyme kinetic analysis, P347S pig; type: biochemical
From the text: as §2

alpha1 integrin mRNA = assay: Ribozyme kinetic analysis, alpha 1 integrin; type: biochemical
From the text: as §2

alpha3 integrin mRNA = assay: Ribozyme kinetic analysis, alpha 3 integrin; type: biochemical
From the text: as §2

alphaV integrin mRNA = assay: Ribozyme kinetic analysis, alpha V integrin; type: biochemical
From the text: as §2

[11] = per experiment, target CAUGUCUCUUUG
[12] = per experiment, Rz 1 target AGAUGUCUAUAAG, Rz 2 target GAGAGUCUCAUGA
[13] = per experiment, Rz 1 target CUAUGCCUUCAUG, Rz 2 target CGCUGUCUUCCAC
[14] = per experiment, Rz 1 target GCGCGUCUUCCCG, Rz 2 target ACUGGUCUUCUAC

## CCCn1c(=O)c2[nH]c(C3CCCC3)nc2n(CCC)c1=O [CPX, 8-cyclopentyl-1,3-dipropylxanthine]
HREC [1]
  inhibition of NECA-induced increase in cAMP content in HRECs: not signficantly inhibited
HREC [2]
  attenuation of NECA-stimulated BrdU incorporation by HRECs: neither

## CCNC(=O)[C@H]1O[C@@H](n2cnc3c(N)ncnc32)[C@H](O)[C@@H]1O [NECA]
HREC [1]; intact HRECs, read-out: EC50 for increase of cAMP content of HRECs
  EC50: 24 µM
HREC [2]; agonist alone, 48 hr, CGS21680 and CPA 10 nM to 10 μM
  increase of BrdU incorporation (DNA synthesis) by HRECs: concentration-dependent increase of DNA synthesis
HREC [3]
  HREC chemotaxis induced by agonist: induced HREC chemotaxis in a concentration-dependent manner
HREC [4]; HREC, agonist alone
  ERK activation by agonist: dose-dependent increase in ERK activation; also recorded: transient activation of ERK
HREC [5]
  increase in HREC number: concentration-dependent increase in HREC number

## COc1cccc(-c2cc(=O)c3ccccc3o2)c1N [PD98059]
HREC [6]
  CREB activation (phosphorylation) following NECA stimulation: did not alter CREB activation
HREC [4]
  effect on NECA-stimulated ERK activation: abolished ERK activation

## O=S(=O)(NCCNC/C=C/c1ccc(Br)cc1)c1cccc2cnccc12 [Ribozyme H-89]
HREC [6]
  CREB activation (phosphorylation) following NECA stimulation: blocked CREB phosphorylation
HREC [4]
  effect on NECA-stimulated ERK activation: did not block
HREC [4]; HREC, CGS 1-10 μM, H-89 30 min pretreatment
  basal ERK activation: increased basal ERK activation

## Nc1nc2c(cnn2CCc2ccccc2)c2nc(-c3ccco3)nn12 [SCH58261, 5-amino-7-(2-phenylethyl)-2-(2-furyl)-pyrazolo(4,3-E)-1,2,4-trizolo(1,5-c) pyrimidine]
HREC [1]
  inhibition of NECA-induced increase in cAMP content in HRECs: not signficantly inhibited
HREC [2]
  attenuation of NECA-stimulated BrdU incorporation by HRECs: neither

## A2B Rz 1: hammerhead ribozyme CAAAGACUGAUGAGCCGUUCGCGGCGAAACAUGU (SEQ ID NO:90), adenosine A2b receptor mRNA (RNA, backbone not given here)
[7]; mean
  Km: 4.35 µM
  Vmax: 541.7 nM/min
  kcat: 36.1 min − 1
[7]; [11]
  Km: 5.07 µM and 3.63 µM
  Vmax: 666.7 nM/min and 416.7 nM/min
  kcat: 44.4 min − 1 and 27.8 min − 1

## IGF1 Rz 2: ribozyme GGAACUGAUGAGCCGUUCGCGGCGAAACGUAC (SEQ ID NO:101), IGF-I receptor mRNA (RNA, backbone not given here)
[8]
  Km: 9.76 µM
  Vmax: 27.6 nM/min
  kcat: 18.4 min − 1

## P347S human: ribozyme UAGGCCCUGAUGAGCCGCUUCGGCGGCAAAGGCCA (SEQ ID NO:103), P347S mutant rod opsin mRNA (listed as RNA, chemistry not given here)
[9]
  Km: 41.9 µM
  Vmax: 0.00135 nM/min
  kcat: 1.10E−04 min − 1

## P347S pig: ribozyme UAGGCUCUGAUGAGCCGCUUCGGCGGCAAACGCCU (SEQ ID NO:102), P347S mutant rod opsin mRNA (listed as RNA, chemistry not given here)
[10]; mean
  Km: 2.05 µM
  Vmax: 7.3 nM/min
  kcat: 1.5 min − 1
[10]; per experiment
  Km: 1.65 µM and 1.68 µM and 2.84 µM
  kcat: 1.8 min − 1 and 2.2 min − 1 and 1.3 min − 1 and 1.1 min − 1 and 1.2 min − 1

## alpha 1 Rz 1: ribozyme CUUAUACUGAUGAGCCGUUCGCGGCGAAACAUCU (SEQ ID NO:96), alpha1 integrin mRNA (RNA, backbone not given here)
alpha1 integrin mRNA; mean
  Km: 25.6 µM
  Vmax: 57.0 nM/min
  kcat: 3.8 min − 1
alpha1 integrin mRNA; [12]
  Vmax: 61.7 nM/min and 52.4 nM/min
  kcat: 4.1 min − 1 and 3.5 min − 1

## alpha 1 Rz 2: ribozyme UCAUGACUGAUGAGCCGUUCGCGGCGAAACUCUC (SEQ ID NO:97), alpha1 integrin mRNA (RNA, backbone not given here)
alpha1 integrin mRNA; mean
  Km: 42.2 µM
  Vmax: 42.2 nM/min
  kcat: 2.9 min − 1
alpha1 integrin mRNA; [12]
  Km: 30.6 µM and 53.8 µM
  Vmax: 31.0 nM/min and 53.5 nM/min
  kcat: 2.1 min − 1 and 3.6 min − 1

## alpha 3 Rz 1: ribozyme CAUGAACUGAUGAGCCGUUCGCGGCGAAACAUAG (SEQ ID NO:92), alpha3 integrin mRNA (RNA, backbone not given here)
alpha3 integrin mRNA; mean
  Km: 4.16 µM
  Vmax: 6.2 nM/min
  kcat: 0.4 min − 1
alpha3 integrin mRNA; [13]
  Km: 3.62 µM and 4.69 µM
  Vmax: 5.4 nM/min and 6.9 nM/min
  kcat: 0.4 min − 1 and 0.5 min − 1

## alpha 3 Rz 2: ribozyme GUGGAACUGAUGAGCCGUUCGCGGCGAAACAGCG (SEQ ID NO:93), alpha3 integrin mRNA (RNA, backbone not given here)
alpha3 integrin mRNA; mean
  Km: 1.45 µM
  Vmax: 2.5 nM/min
  kcat: 0.2 min − 1
alpha3 integrin mRNA; [13]
  Km: 1.66 µM and 1.24 µM
  Vmax: 2.8 nM/min and 2.2 nM/min
  kcat: 0.2 min − 1

## alpha V Rz 1: ribozyme CGGGAACUGAUGAGCCGUUCGCGGCGAAACGCGC (SEQ ID NO:98), alphaV integrin mRNA (RNA, backbone not given here)
alphaV integrin mRNA; mean
  Km: 5.2 µM
  Vmax: 33.4 nM/min
  kcat: 2.2 min − 1
alphaV integrin mRNA; [14]
  Km: 4.98 µM and 5.41 µM
  Vmax: 30.5 nM/min and 36.2 nM/min
  kcat: 2.0 min − 1 and 2.4 min − 1

## alpha V Rz 2: ribozyme GUAGAACUGAUGAGCCGUUCGCGGCGAAACCAGU (SEQ ID NO:99), alphaV integrin mRNA (RNA, backbone not given here)
alphaV integrin mRNA; mean
  Km: 11.3 µM
  Vmax: 285.7 nM/min
  kcat: 19.1 min − 1
alphaV integrin mRNA; [14]
  Km: 8.54 µM and 14 µM
  Vmax: 238.1 nM/min and 333.3 nM/min
  kcat: 15.9 min − 1 and 22.2 min − 1
